Measurements: patent US6783558B2, “Hair coloring method and composition” (Kao Corporation, priority 2001, dated 2004)

Experiments:
[1] = Measurement of pKa value by spectrophotometric titration; format: physicochemical; conditions: DMF/water (1/1) solution, 2×10^−5 mol/l, titrated from pH 2 with NaOH, visible ultra-violet absorption spectrum, read-out: pKa value determined
Description: The dissociative dye represents the dye that can release a proton and be anionic above a certain pH value. The pKa value can be determined by the following method: The sample is dissolved in a solution of a DMF/water (1/1) volume ratio to a final concentration of 2×10^−5 mol/l. After the resulting solution is adjusted to pH 2, using 1.0 mol/l hydrochloric acid, the solution is titrated with aqueous 1.0 mol/l sodium hydroxide solution. Recording the change of the visible ultra-violet absorption spectrum, the inflection point is determined by regression analysis.
pKa values of the dyestuffs DS-3 to DS-6, DS-7 and DS10 were determined by the following method: The dye was dissolved in a solution of a DMF/water (1/1) volume ratio to a final concentration of 2×10^−5 mol/l. After the resulting solution was adjusted to pH 2, using 1.0 mol/l hydrochloric acid, the solution was titrated with aqueous 1.0 mol/l sodium hydroxide solution. Recording the change of the visible ultra-violet absorption spectrum, the inflection point was determined by regression analysis.

[2] = Dyeing of undamaged white goat tress with general composition, Examples 7-15; conditions: 0.02 g dyestuff in 10 g general composition (Table 6), 20 mins at 50° C
Description: the following general composition was prepared for each of pyrazolotriazole direct dyes DS-3, DS-4, DS-6, DS-7 and DS-12 to DS-16. Each composition was applied to one undamaged white goat tress for 20 mins at 50° C. (1 g of tress was covered by 1.5 to 2 g of composition). After 20 mins the tresses were rinsed, shampoo washed and then dried before the colour was assessed.

[3] = Compatibility with hydrogen peroxide, Examples 18-21; set-up: species or system human; conditions: for Delta a (change in red colour): 0.02 g dyestuff in 10 g, undamaged human blond hair, 20 mins at 50° C; for stability to alkaline peroxide: composition with ammonia and hydrogen peroxide
Description: The following general compositions in Table 10 were prepared for each of pyrazolotriazole direct dyes DS-4 and DS-6.
Each composition was applied to one undamaged human blond hair for 20 mins at 50° C. After 20 mins the tresses were rinsed, shampoo washed and then dried before the colour was assessed.

SMILES	pKa [1]	stability to alkaline peroxide [3]	Colouring Result [2]	Delta E [2]	L [2]	a [2]	b [2]	Delta a (change in red colour) ([3]; H2O2 3 wt %)	Delta a (change in red colour) ([3]; H2O2 None)
CC1=Nn2c(C)nnc2/C1=N\c1cc(Cl)c(O)c(Cl)c1 [DS-5]	4.34								
CSc1nnc2n1N=C(c1ccccc1)/C2=N/c1cc(Cl)c(O)c(Cl)c1 [DS-12]			Violet	59	48	29	−26		
CC(C)c1nc2n(n1)N=C(c1ccccc1Cl)/C2=N/c1cc(Cl)c(O)c(Cl)c1 [DS-15]			Violet	55	51	33	−17		
CC(C)(C)C1=Nn2nc(-c3ccc(NS(C)(=O)=O)cc3)nc2/C1=N\c1cc(Cl)c(O)c(Cl)c1 [DS-16]			Bright pink	52	55	41	−3		

Further lines, with some results ahead:

pKa [1]	stability to alkaline peroxide [3]	SMILES	Colouring Result [2]	Delta E [2]	L [2]	a [2]	b [2]	Delta a (change in red colour) ([3]; H2O2 3 wt %)	Delta a (change in red colour) ([3]; H2O2 None)
3.78		CC1=Nn2nc(C)nc2/C1=N\c1cc(Cl)c(O)c(Cl)c1 [DS-3]	Bright, intense magenta	81	30	54	−12		
3.88	stable to alkaline peroxide	Cc1nc2n(n1)N=C(C(C)(C)C)/C2=N/c1cc(Cl)c(O)c(Cl)c1 [DS-4]	Bright, intense magenta	75	38	60	16	39	27
	stable to alkaline peroxide	Cc1nnc2n1N=C(C(C)(C)C)/C2=N/c1cc(Cl)c(O)c(Cl)c1 [DS-6]	Bright pink	55	57	42	−7	30	15
3.92		CC(C)c1nc2n(n1)N=C(C(C)(C)C)/C2=N/c1cc(Cl)c(O)c(Cl)c1 [DS-7]	Pink	60	50	50	−8		
3.38		CC1=Nn2nc(C(C)CN)nc2/C1=N\c1cc(Cl)c(O)c(Cl)c1 (stereo not shown) [DS-10]							
